Residue numbers refer to the chain shown, from its start.
Experiments:
[1] = molecular target: T1, human P2X4 I312T (h4-I312T) (Homo sapiens, UniProt Q99571, I312T); test: ATP-induced calcium influx (Fluo-4) in 1321N1 cells stably expressing human P2X4 I312T; type: cell-based
T1 construct: expressed in transfected cells; host or cells: 1321N1 astrocytoma cells, stably transfected
T1 sequence (Q99571 1-388 I312T): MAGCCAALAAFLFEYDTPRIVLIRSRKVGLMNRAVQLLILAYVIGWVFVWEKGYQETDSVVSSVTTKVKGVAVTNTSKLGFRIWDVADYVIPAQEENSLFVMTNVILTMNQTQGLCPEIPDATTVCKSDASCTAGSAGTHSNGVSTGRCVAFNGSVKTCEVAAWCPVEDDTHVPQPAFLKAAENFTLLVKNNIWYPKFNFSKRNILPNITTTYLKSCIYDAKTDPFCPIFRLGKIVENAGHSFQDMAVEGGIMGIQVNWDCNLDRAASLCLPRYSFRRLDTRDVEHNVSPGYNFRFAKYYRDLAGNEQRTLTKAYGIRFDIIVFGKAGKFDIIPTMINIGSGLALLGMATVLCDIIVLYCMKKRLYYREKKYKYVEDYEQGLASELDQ
Procedure: Plasmid encoding rat P2X4 (r4-WT) ([Royle et al., 2005]) was a kind gift from Ruth Murrell-Lagnado, whilst that encoding human P2X4 with a C-terminal (His)10 tag has been reported previously ([Young et al., 2008]).
(§1) 1321N1 astrocytoma cells were cultured (at 37°C, 5% CO2) in Dulbecco’s modified Eagle’s medium (DMEM/F-12 with Glutamax) supplemented with 10% foetal bovine serum (FBS) and 200 unit/mL of penicillin and streptomycin antibiotics (Fisher Scientific). Stably transfected clones were grown in DMEM/F-12 with Glutamax medium supplemented with G-418 (Geneticin®, Fisher Scientific), 600 μg/mL and 150 μg/mL during selection and maintenance, respectively. […] Each cell line was then tested for P2X4 receptor expression by Western blot and for functionality using the Ca^2+ influx assay.
(§2) Cells were plated the day before assay into poly-lysine-coated 96-well plates at 40–55,000 cells/mL. […] Prior to assay, buffer was replaced with fresh modified Ringer’s buffer containing probenecid but not the dye. […] A Fluoroskan Ascent FL plate reader (Fisher Scientific) equipped with a solution dispenser and an appropriate filter pair (excitation: 485 nm, emission: 538 nm) was used to record 5-s baseline followed by P2X4-mediated calcium influx measurements for 20–25 s after ATP stimulation (final concentration ranging between 0.03 and 100 μM in buffered solution, pH = 7.4). The collected responses were normalized to the first data-point recorded after ATP injection.
(§3) Data processing and data analysis were carried out using Graphpad Prism version 6 for Mac. Figures are presented as Mean ± SEM. […] When comparing data obtained from multiple independent experiments (N), each dataset was normalized to the mean value obtained for the vehicle control.

[2] = molecular target: T2, human P2X4 wild type (h4-WT) (Homo sapiens, UniProt Q99571); test: ATP-induced calcium influx (Fluo-4) in 1321N1 cells stably expressing human P2X4 wild type; type: cell-based; settings: human vs rat P2X4
T2 construct: expressed in transfected cells; host or cells: 1321N1 astrocytoma cells, stably transfected
T2 sequence (Q99571 1-388): T1 sequence (Q99571 1-388 I312T) with T312I
Procedure: as §1, §2, §3

human P2X4 open channel = test system: human P2X4 open channel; design: method as in Bidula et al. (2022); settings: ref Bidula et al. (2022); cited from earlier work

CC(C)c1cc(Br)c(NC(=O)Nc2cccnc2)c(Br)c1 [BX430]
decrease in BX-430 potency by I312T mutation in human P2X4 ([1]; human P2X4 I312T vs human P2X4 WT): > 48 fold
Hill coefficient (BX-430 inhibition curve) ([1]; human P2X4 I312T, 1 µM ATP): 2.057
potency at human P2X4 compared with the rat isoform [2]: approximately 30 fold
capability of blocking the open channel (human P2X4 open channel): capable of blocking the open channel

Source: article PMC9947563, “Identification of the molecular determinants of antagonist potency in the allosteric binding pocket of human P2X4” (Frontiers in Pharmacology, 2023)
